The test system of data set [1] is common blackjack (Bidens pilosa). In words: Herbicidal effect by foliage and soil treatment. It counts as in vivo. Particulars: 10 g ai/10a, evaluated after 14 days. Put shortly: (§1)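 Post-emergence spray, cotyledon to bifoliate stage; Tween 20/water vehicle, fixed dose per area; greenhouse 19–25 °C; 14 d; visual growth rating vs untreated.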
Data set [2] relates to sicklepod (Cassia obtusifolia). Kind of data set: Herbicidal effect by foliage and soil treatment. The format is in vivo. Particulars: 10 g ai/10a, evaluated after 14 days. An outline of the steps: as §1
Data set [3] has as its system wild chamomile (Matricaria chamomilla). Kind of data set: Herbicidal effect by foliage and soil treatment. Particulars: 10 g ai/10a, evaluated after 14 days. The format is in vivo. Put shortly:
as §1

Data set [4] concerns common chickweed (Stellaria media). In words: Herbicidal effect by foliage and soil treatment. The format is in vivo. Particulars: 10 g ai/10a, evaluated after 14 days. Put shortly: as §1
Data set [5] deals with velvetleaf (Abutilon theophrasti). Kind of data set: Herbicidal effect by foliage and soil treatment. The note with it: 10 g ai/10a, evaluated after 14 days. The format is in vivo. Put shortly:
as §1

The test system of data set [6] is redroot pigweed (Amaranthus retroflexus). Kind of data set: Herbicidal effect by foliage and soil treatment. The note with it: 10 g ai/10a, evaluated after 14 days. The format is in vivo. Put shortly: as §1
Data set [7] deals with kediock (Sinapis arvensis). Kind of data set: Herbicidal effect by foliage and soil treatment. It counts as in vivo. The note with it: 10 g ai/10a, evaluated after 14 days. Put shortly:
as §1

Data set [8] deals with field bindweed (Convolvulus arvensis). In words: Herbicidal effect by foliage and soil treatment. It counts as in vivo. The note with it: 10 g ai/10a, evaluated after 14 days. An outline of the steps: as §1
In data set [9] the test system is cleavers (Galium aparine). In words: Herbicidal effect by foliage and soil treatment. The note with it: 10 g ai/10a, evaluated after 14 days. The format is in vivo. An outline of the steps: as §1
Data set [10] relates to ivyleafspeedwell (Veronica hederaefolia). In words: Herbicidal effect by foliage and soil treatment. It counts as in vivo. Particulars: 10 g ai/10a, evaluated after 14 days. Put shortly: as §1
The subject of data set [11] is black nightshade (Solanum nigrum). Kind of data set: Herbicidal effect by foliage and soil treatment. The format is in vivo. Particulars: 10 g ai/10a, evaluated after 14 days. Put shortly: as §1

For `CCS(=O)(=O)CCNC(=O)c1cc(OC)cc(Oc2cccc(C(F)(F)F)c2)n1` [Compound I-68, N-{2-(ethylsulfonyl)ethyl}-4-methoxy-6-{3-(trifluoromethyl)phenoxy}-2-pyridine carboxamide], the melting point (usually the temperature of the solid-liquid transition) lay within 92 to 94 °C. The “herbicidal activity rating, BP (Bidens pilosa)” value (from here on “herbicidal activity rating, BP”) in [1] was 4 (percentage of weeds killed was not less than 60% and less than 80%). The “herbicidal activity rating, CO (Cassia obtusifolia)” value (shortened to “herbicidal activity rating, CO”) in data set [2] is listed as 5 (percentage of weeds killed was not less than 80%). For the same compound, the “herbicidal activity rating, MC (Matricaria chamomilla)” value (from here on “herbicidal activity rating, MC”) in data set [3] is 2 (percentage of weeds killed was not less than 20% and less than 40%). For the same compound, in [4], the “herbicidal activity rating, SM (Stellaria media)” value (shortened to “herbicidal activity rating, SM”) is 4 (percentage of weeds killed was not less than 60% and less than 80%). The “herbicidal activity rating, AT (Abutilon theophrasti)” value in [5] is 5 (percentage of weeds killed was not less than 80%). Besides, the “herbicidal activity rating, AR (Amaranthus retroflexus)” value (“herbicidal activity rating, AR” below) in data set [6] is given as 5 (percentage of weeds killed was not less than 80%). For the same compound, the “herbicidal activity rating, SA (Sinapis arvensis)” value (“herbicidal activity rating, SA” below) in [7] was 5 (percentage of weeds killed was not less than 80%). For the same compound, the “herbicidal activity rating, CA (Convolvulus arvensis)” value (“herbicidal activity rating, CA” below) in data set [8] is 4 (percentage of weeds killed was not less than 60% and less than 80%). In addition, the “herbicidal activity rating, GA (Galium aparine)” value (“herbicidal activity rating, GA” below) in data set [9] was 5 (percentage of weeds killed was not less than 80%). Besides, the “herbicidal activity rating, VH (Veronica hederaefolia)” value (“herbicidal activity rating, VH” below) in data set [10] is 5 (percentage of weeds killed was not less than 80%). In data set [11], the “herbicidal activity rating, SN (Solanum nigrum)” value (from here on “herbicidal activity rating, SN”) is reported as 5 (percentage of weeds killed was not less than 80%).
Take `CC[S+]([O-])CCNC(=O)c1cc(OC)cc(Oc2cccc(C(F)(F)F)c2)n1` (centres unmarked) [Compound I-69, N-{2-(ethylsulfinyl)ethyl}-4-methoxy-6-{3-(trifluoromethyl)phenoxy}-2-pyridine carboxamide]: the melting point fell in the range of 77 to 79 °C. Further, the “herbicidal activity rating, BP” value in data set [1] was 3 (percentage of weeds killed was not less than 40% and less than 60%). Further, in data set [2], the “herbicidal activity rating, CO” value was 5 (percentage of weeds killed was not less than 80%). Moreover, in data set [3], the “herbicidal activity rating, MC” value is 3 (percentage of weeds killed was not less than 40% and less than 60%). Moreover, in data set [4], the “herbicidal activity rating, SM” value was 4 (percentage of weeds killed was not less than 60% and less than 80%). The “herbicidal activity rating, AT (Abutilon theophrasti)” value in data set [5] is recorded as 5 (percentage of weeds killed was not less than 80%). Moreover, the “herbicidal activity rating, AR” value in data set [6] is listed as 5 (percentage of weeds killed was not less than 80%). In addition, the “herbicidal activity rating, SA” value in data set [7] was 5 (percentage of weeds killed was not less than 80%). Moreover, the “herbicidal activity rating, CA” value in data set [8] is 4 (percentage of weeds killed was not less than 60% and less than 80%). For the same compound, the “herbicidal activity rating, GA” value in data set [9] was 5 (percentage of weeds killed was not less than 80%). The “herbicidal activity rating, VH” value in data set [10] was 5 (percentage of weeds killed was not less than 80%). In addition, in [11], the “herbicidal activity rating, SN” value is 5 (percentage of weeds killed was not less than 80%).
With `CCCNC(=S)c1cccc(Oc2cccc(C(F)(F)F)c2)n1` [control (c)], in data set [1], the “herbicidal activity rating, BP” value was 1 (percentage of weeds killed was less than 20%). Besides, the “herbicidal activity rating, CO” value in data set [2] is 2 (percentage of weeds killed was not less than 20% and less than 40%). The “herbicidal activity rating, MC” value in [3] is 1 (percentage of weeds killed was less than 20%). In addition, in data set [4], the “herbicidal activity rating, SM” value is 3 (percentage of weeds killed was not less than 40% and less than 60%). In addition, the “herbicidal activity rating, AT (Abutilon theophrasti)” value in data set [5] is 3 (percentage of weeds killed was not less than 40% and less than 60%). Moreover, the “herbicidal activity rating, AR” value in data set [6] was 5 (percentage of weeds killed was not less than 80%). Also, the “herbicidal activity rating, SA” value in [7] is given as 5 (percentage of weeds killed was not less than 80%). Further, the “herbicidal activity rating, CA” value in [8] is 2 (percentage of weeds killed was not less than 20% and less than 40%). For the same compound, the “herbicidal activity rating, GA” value in data set [9] was 4 (percentage of weeds killed was not less than 60% and less than 80%). Further, the “herbicidal activity rating, VH” value in data set [10] is 5 (percentage of weeds killed was not less than 80%). The “herbicidal activity rating, SN” value in [11] is 4 (percentage of weeds killed was not less than 60% and less than 80%).
